# Test results reported in patent publication US9809861B2, “Method of evaluating inhibitory effect on damp-dry malodor” (Kao Corporation, priority 2012, dated 2017).
# How the values were obtained:
# fadD gene = assay: Change in expression amount of fadD gene in the presence of test substance (real time PCR); type: cell-based, Moraxella sp. KMC4-1; conditions: for Change in the expression amount of fadD gene: Substance (1) 10 ppm, (2)(3)(5)(6) 100 ppm, (4) 500 ppm; for expression amount of the fadD gene by the microorganisms: summary of Table 13
# Method: (§1) The substances (1) to (7) described below each were added to 4 mL SCD liquid medium (manufactured by NIHON PHARMACEUTICAL CO., LTD). As a control, a medium system not added with any test substance was also prepared. To these medium, one platinum loop of precultured Moraxella sp. KMC4-1 was inoculated and cultured for 24 hours at 35 C while shaking (160 rpm).
# (§2) To the cell liquid cultured for 24 hours, 10 mg of 16-methyloctadecanoic acid was added as a sebaceous dirt component. After culturing again for 6 hours at 35° C., the cells were collected. As a control, a system not added with a sebaceous dirt component was also cultured and cells were collected therefrom.
# (§3) An RNA sample was prepared from the collected cells in the same manner as in the test example 1.
# (§4) Reaction solutions for real time PCR were prepared in the same manner as above, except that, instead of the primer set including the primer containing the oligonucleotide having the base sequence set forth in SEQ ID NO: 13 and the primer containing the oligonucleotide having the base sequence set forth in SEQ ID NO: 14, the primer set described in Tables 11 to 13 was used.
# (§5) The reaction solutions for real time PCR each were subjected to a gene amplification by using an automatic gene amplification thermal cycler DICE Real time system II (manufactured by Takara Bio Inc.), and then the expression amount of each of the fatty acid desaturase gene (the Δ9desaturase gene) and the β oxidation-relating enzyme genes (the fadB gene and the fadD gene) was measured. PCR reaction conditions were 40 cycles of (i) a thermal denaturation reaction at 95° C. for 20 seconds, and (ii) an annealing reaction and an elongation reaction at 60° C. for 30 seconds.
# (§6) By having the gene expression of 16S rRNA as an internal standard, and having the gene expression amount when adding no sebaceous dirt component and no test substance as a reference value, change in expression amount of each gene was calculated relative to the reference value. A sample, in which the expression amount of the gene was ½ times or less the reference value, was rated as “A”; a sample, in which the expression amount of the gene was more than ½ times and ⅔ times or less the reference value, was rated as “B”; and a sample, in which the expression amount of the gene was more than ⅔ times the reference value, was rated as “C”.
# Moraxella sp. KMC4-1 [1] = assay: Bactericidal test; type: cell-based; conditions: 10^6 CFU/mL, 2 hours, 25° C.; Substance (1) 10 ppm, (2)(3)(5)(6) 100 ppm, (4) 500 ppm
# Method: To 5 mL of a test solution in which the substances (1) to (7) each were added so as to be the final concentration described in Table 15, the precultured Moraxella sp. KMC4-1 was inoculated so as to be the concentration of 10^6 CFU/mL and cultured for 2 hours at 25° C. while shaking (160 rpm). After that, it was subjected to serial dilution using LP dilution solution (NIHON PHARMACEUTICAL CO., LTD). Then, by using SCD-LP agar medium (NIHON PHARMACEUTICAL CO., LTD), the number of bacteria remained alive was determined.
# (§7) As for the growth-inhibitory and the bactericidal effect, the evaluation was made as follows: compared to the control, when there was the bacteria number decrease of log 3 or more, it was rated as “A”; when there was the bacteria number decrease of log 1 or more but less than log 3, it was rated as “B”; and when there was the bacteria number decrease of less than log 1, it was rated as “C”.
# Moraxella sp. KMC4-1 [2] = assay: Growth-inhibitory test; type: cell-based; conditions: SCD liquid medium, 24 hours, 35° C., (4) 500 ppm; for Growth-inhibitory effect: initial 10^4 CFU/mL, Substance (1) 10 ppm, (2)(3)(5)(6) 100 ppm; for Growth-inhibitory effect: bacteria number decrease compared to the control: Substance (2) 100 ppm
# Method: To 4 mL of SCD liquid medium (manufactured by NIHON PHARMACEUTICAL CO., LTD), the substances (1) to (7) each were added so as to be the final concentration described in Table 15. As a control, a medium system not added with any test substance was also prepared. To the medium, the precultured Moraxella sp. KMC4-1 was inoculated so as to be the initial concentration of 10^4 CFU/mL and cultured for 24 hours at 35° C. while shaking (160 rpm). After that, it was subjected to serial dilution using LP dilution solution (NIHON PHARMACEUTICAL CO., LTD). Then, by using SCD-LP agar medium (NIHON PHARMACEUTICAL CO., LTD), the number of bacteria remained alive was determined.
# as §7
# fadB gene = assay: Change in expression amount of fadB gene in the presence of test substance (real time PCR); type: cell-based, Moraxella sp. KMC4-1; conditions: for Change in the expression amount of fadB gene: Substance (1) 10 ppm, (2)(3)(5)(6) 100 ppm, (4) 500 ppm; for expression amount of the fadB gene by the microorganisms: summary of Table 12
# Method: as §1, §2, §3, §4, §5, §6
Compound,Change in the expression amount of fadD gene (fadD gene; primers SEQ ID NO: 35 / 36),Change in the expression amount of fadD gene (fadD gene; primers SEQ ID NO: 41 / 42),expression amount of the fadD gene by the microorganisms (fadD gene),Bactericidal effect (Moraxella sp. KMC4-1 [1]),Growth-inhibitory effect (Moraxella sp. KMC4-1 [2]),Change in the expression amount of fadB gene (fadB gene; primers SEQ ID NO: 25 / 26),Change in the expression amount of fadB gene (fadB gene; primers SEQ ID NO: 27 / 28),Change in the expression amount of fadB gene (fadB gene; primers SEQ ID NO: 29 / 30),Change in the expression amount of fadB gene (fadB gene; primers SEQ ID NO: 31 / 32),Growth-inhibitory effect: bacteria number decrease compared to the control (Moraxella sp. KMC4-1 [2]) [log],expression amount of the fadB gene by the microorganisms (fadB gene)
CCCCCCCCCC=O [Substance (1)],A (the expression amount of the gene was ½ times or less the reference value),A (the expression amount of the gene was ½ times or less the reference value),decreased,C (the bacteria number decrease of less than log 1),C (the bacteria number decrease of less than log 1),C (the expression amount of the gene was more than ⅔ times the reference value),C (the expression amount of the gene was more than ⅔ times the reference value),C (the expression amount of the gene was more than ⅔ times the reference value),C (the expression amount of the gene was more than ⅔ times the reference value),,
CC(=O)OC(C)(C)Cc1ccccc1 [Substance (2)],A (the expression amount of the gene was ½ times or less the reference value),A (the expression amount of the gene was ½ times or less the reference value),decreased,C (the bacteria number decrease of less than log 1),B (the bacteria number decrease of log 1 or more but less than log 3),A (the expression amount of the gene was ½ times or less the reference value),A (the expression amount of the gene was ½ times or less the reference value),A (the expression amount of the gene was ½ times or less the reference value),A (the expression amount of the gene was ½ times or less the reference value),2,decreased
O=C[C@H](O)[C@@H](O)[C@H](O)[C@H](O)CO [Substance (5)],C (the expression amount of the gene was more than ⅔ times the reference value),C (the expression amount of the gene was more than ⅔ times the reference value),,C (the bacteria number decrease of less than log 1),C (the bacteria number decrease of less than log 1),C (the expression amount of the gene was more than ⅔ times the reference value),C (the expression amount of the gene was more than ⅔ times the reference value),C (the expression amount of the gene was more than ⅔ times the reference value),C (the expression amount of the gene was more than ⅔ times the reference value),,
CNc1ccccc1C(=O)OC [Substance (3)],A (the expression amount of the gene was ½ times or less the reference value),A (the expression amount of the gene was ½ times or less the reference value),decreased,C (the bacteria number decrease of less than log 1),C (the bacteria number decrease of less than log 1),A (the expression amount of the gene was ½ times or less the reference value),A (the expression amount of the gene was ½ times or less the reference value),A (the expression amount of the gene was ½ times or less the reference value),B (the expression amount of the gene was more than ½ times and ⅔ times or less the reference value),,decreased
CCCCCCCC/C=C\CCCCCCCC(=O)O [Substance (4)],C (the expression amount of the gene was more than ⅔ times the reference value),C (the expression amount of the gene was more than ⅔ times the reference value),,C (the bacteria number decrease of less than log 1),B (the bacteria number decrease of log 1 or more but less than log 3),A (the expression amount of the gene was ½ times or less the reference value),A (the expression amount of the gene was ½ times or less the reference value),A (the expression amount of the gene was ½ times or less the reference value),A (the expression amount of the gene was ½ times or less the reference value),2,decreased
